Test results published in patent publication US20060134204A1, “Complexes made using low solubility drugs” (priority 2004, published 2006).

Assay: Crystallinity of the complex by powder X-ray diffraction (XRD)
Assay type: physicochemical
Settings: PANalytical X'Pert Pro, percent crystallinity
From the text: “Crystallinity” means the degree to which a chemical entity is present in a crystalline form. This degree can be expressed in units such as percent crystallinity. X-Ray diffraction (“XRD”) techniques can be used to determine crystallinity of substances, including inventive substances. From an XRD spectra, the percent crystallinity may be calculated as: Percent crystallinity=(sum of net intensity)/(sum of observed intensity) where the sum of net intensity=integrated area of peak intensity above the baseline, and sum of observed intensity=integrated area of total peak intensity including sum of net intensity and integrated area under baseline. Additional information about use of XRD to determine percent crystallinity may be found in R. Jenkins et al., Introduction to X-Ray Powder Diffractometry, John Wiley & Sonds, Inc. (1996). Qualitative determination of crystallinity of the complex of Example 1 was conducted with PANalytical X'Pert Pro Powder X-ray Diffraction (XRD) System. […] The crystallinity of sodium lauryl sulfate was determined to be 32%, and the crystallinity of the physical mixture was determined to be 50%.

Row | crystallinity [%] | Structure (SMILES)
1 | 63 | OCCC#Cc1nc(-c2ccc(F)cc2)c(-c2ccncc2)n1CCCc1ccccc1 [4-(4-Fluorophenyl)-2-(4-hydroxy-1-butynyl)-1-(3-phenylpropyl)-5-(4-pyridyl)imidazole]
2 | 32 | CCCCCCCCCCCCOS(=O)(=O)[O-].[Na+] [sodium lauryl sulfate]
